In PMC3355318 (Toxicological Sciences, 2012):

Experiments:
[1] = system: 3D spheroids constructed from immortal human C3A hepatocytes (HepG2/C3A)
[2] = system: HepG2 cells; conditions: ref Wang et al., 2002; cited from earlier work
[3] = system: Huh-7 cells; conditions: ref Lin et al., 2012; cited from earlier work
[4] = ref Schulz and Schmoldt, 2003; cited from earlier work

## [H]/N=C(/N)N/C(=N/[H])NCCc1ccccc1 [Phenformin, phenformin]
[1]
  cellular ATP production at low compound concentrations: not seen

## CC(=O)Nc1ccc(O)cc1 [APAP, Acetaminophen]
[2]
  LD50 converted from published LC50: 82.32 mg/mg
[3]
  LD50 converted from published LC50: 4.13 mg/mg

## CCCC(CCC)C(=O)O [Valproic acid, valproic acid]
[1]
  cellular ATP production at low compound concentrations: not seen
[4]
  Terminal elimination half-life: 15 h

## CN(C)C(=N)N=C(N)N [Metformin, metformin]
[1]
  cellular ATP production at low compound concentrations: slightly increased
[1]; human
  LD50: 2.76 mg compound/mg cellular protein
